Results: patent US20070060615A1, “Method of Modulating Apoptosis Through Modulation of E2F1” (University of South Florida, priority 2003, published 2007)

Assays:
[1] = tested on: Bok; assay: Western blot of Bok in H1299 cells; assay type: cell-based, human; details: H1299, 200 nM
[2] = tested on: E2F1 null mouse embryo fibroblasts; assay: Apoptosis by Apo-BrdUrd in E2F1 null mouse embryo fibroblasts; assay type: cell-based; details: 200 nM, 72 hours, FIG. 6C
Protocol: (§1) The H1299 non-small cell lung cancer line are grown in DMEM supplemented with 2 mM L-glutamine (Life Technologies, Inc.), 5% fetal bovine serum (Hyclone), and 1% penicillin/streptomycin (Life Technologies, Inc.). NIH3T3 cells constitutively expressing human Mcl-1 were created by transfecting cells with pcDNA-3-Mcl-1 and selecting for transformants in the presence of 400 μg/ml G418. Mouse embryo fibroblasts from E2F1-null animals were grown in DMEM with 15% fetal bovine serum and 1% penicillin/streptomycin. […] The drug was diluted directly into the medium to indicated concentrations followed by incubation at 37° C. Untreated cells and cells treated with DMSO alone behaved identically.
(§2) Apoptosis was assayed using PharMingen “APO-BrdU” kit without modification. After treatment with flavopiridol, cells were trypsinized and resuspended in PBS. Cells were counted and 1-2×10^6 cells were fixed in 1% paraformaldehyde in PBS on ice, pelleted, washed twice in PBS, and fixed with ice-cold 70% ethanol overnight. The next day, cells were pelleted, resuspended, and washed with wash buffer. Pelleted cells were resuspended with reaction buffer, TdT enzyme, and bromo-dUTP for 1 hour at 37° C. […] One×10^4 cells per experimental condition were analyzed for fluorescence on a Becton-Dickinson FACScan using Cell Quest software.

[3] = tested on: Mcl-1; assay: Western blot of Mcl-1 in E2F1 knockdown H1299 cells; assay type: cell-based, human; details: E2F1 knockdown H1299, 8 hours, FIG. 6A
Protocol: (§3) To generate E2F1 knockdown cell lines H1299 cells were transfected by the calcium phosphate method either with empty BS/U6 RNAi vector or with BS/U6-E2F1 RNAi vector together with pcDNA-3, which encodes a neomycin-selectable marker. Forty-eight hours after transfection, cells were split and cultured in medium containing 400 μg/ml G418. Colonies that emerged from G418 selection were propagated and screened for E2F1 expression by Western blot. Several lines were isolated that had reduced E2F1 expression; the most efficient knockdown cell line, H1299-E2F1RNAi-16, was further characterized. A matching H1299-pBS/U6 cell line was generated in the same way.
(§4) Cell lysates were normalized for total protein content (50 μg) and subjected to SDS-PAGE as described previously. Primary antibodies used in these studies consisted of E2F1 (SantaCruz Biotechnology; SC-251), Mcl-1 (Santa Cruz; SC-819), Rb (PharMingen; 14031A), Flag (Sigma; F-3615) and β-actin (Sigma; A5441). Detection of proteins was accomplished using horseradish-peroxidase-conjugated secondary antibodies and enhanced chemiluminescence (ECL) purchased through Amersham. Northern blots were performed as described previously.

[4] = tested on: Rb; assay: Rb Western blot (Rb phosphorylation) in H1299 cells; assay type: cell-based, human; details: H1299, 200 nM, time course FIG. 3A
Protocol: as §4

[5] = tested on: Mcl-1; assay: Western blot of Mcl-1 in H1299 cells; assay type: cell-based, human
Protocol: as §1, with “identically. Cell lysates were normalized for total protein content (50 μg) and subjected to SDS-PAGE as described previously. Primary antibodies used in these studies consisted of E2F1 (SantaCruz Biotechnology; SC-251), Mcl-1 (Santa Cruz; SC-819), Rb (PharMingen; 14031A), Flag (Sigma; F-3615) and β-actin (Sigma; A5441). Detection of proteins was accomplished using horseradish-peroxidase-conjugated secondary antibodies and enhanced chemiluminescence (ECL) purchased through Amersham. Northern blots were performed as described previously.” for “identically.”

[6] = tested on: E2F1; assay: Western blot of E2F1 in H1299 cells; assay type: cell-based, human
Protocol: as §1, with “identically. Cell lysates were normalized for total protein content (50 μg) and subjected to SDS-PAGE as described previously. Primary antibodies used in these studies consisted of E2F1 (SantaCruz Biotechnology; SC-251), Mcl-1 (Santa Cruz; SC-819), Rb (PharMingen; 14031A), Flag (Sigma; F-3615) and β-actin (Sigma; A5441). Detection of proteins was accomplished using horseradish-peroxidase-conjugated secondary antibodies and enhanced chemiluminescence (ECL) purchased through Amersham. Northern blots were performed as described previously.” for “identically.”

[7] = tested on: Bcl-2; assay: Western blot of Bcl-2 in H1299 cells; assay type: cell-based, human; details: H1299, 200 nM
[8] = tested on: NIH3T3 cells stably expressing human Mcl-1; assay: Apoptosis by Apo-BrdUrd in NIH3T3 cells stably expressing Mcl-1; assay type: cell-based, murine; details: 200 nM, 72 hours, FIG. 5C
Protocol: as §1, §2

[9] = tested on: H1299 cells lacking E2F1 protein; assay: Apoptosis by Apo-BrdUrd in E2F1 knockdown H1299 cells; assay type: cell-based, human; details: 200 nM, 48 and 72 h, FIG. 6B
Protocol: as §3, §2

[10] = tested on: wild-type NIH3T3 cells; assay: Apoptosis by Apo-BrdUrd in wild-type NIH3T3 cells; assay type: cell-based, murine; details: 200 nM, 48 and 72 hours, FIG. 5C
Protocol: (§5) Apoptosis was assayed using PharMingen “APO-BrdU” kit without modification. After treatment with flavopiridol, cells were trypsinized and resuspended in PBS. Cells were counted and 1-2×10^6 cells were fixed in 1% paraformaldehyde in PBS on ice, pelleted, washed twice in PBS, and fixed with ice-cold 70% ethanol overnight. The next day, cells were pelleted, resuspended, and washed with wash buffer. Pelleted cells were resuspended with reaction buffer, TdT enzyme, and bromo-dUTP for 1 hour at 37° C. Cells were subsequently rinsed with 1.0 ml of PBS and resuspended with fluorescein-labeled anti-BrdUrd in the dark for 30 min at room temperature. Propidium iodide and RNase were added, and the cells were incubated for 30 min. One×10^4 cells per experimental condition were analyzed for fluorescence on a Becton-Dickinson FACScan using Cell Quest software.

[11] = tested on: H1299-Mcl-1-11 and H1299-Mcl-1-13 cells; assay: Apoptosis by Apo-BrdUrd in H1299 cells stably expressing human Mcl-1; assay type: cell-based; details: 200 nM, 48, 72 and 96 hours, FIG. 4B
Protocol: H1299 cells lines, constitutively expressing human Mcl-1 under control of the CMV promoter, were obtained by transfecting cells with pcDNA3 or pcDNA3-Mcl-1 and selecting for transformants by growth in 400 μg/ml G418. G418-resistant lines were screened for expression of human Mcl-1. Two Mcl-1-positive cell lines emerged and were characterized. A matching G418-resistant H1299-pcDNA3 cell line was generated in the same way. Apoptosis was assayed using PharMingen “APO-BrdU” kit without modification. After treatment with flavopiridol, cells were trypsinized and resuspended in PBS. Cells were counted and 1-2×10^6 cells were fixed in 1% paraformaldehyde in PBS on ice, pelleted, washed twice in PBS, and fixed with ice-cold 70% ethanol overnight. The next day, cells were pelleted, resuspended, and washed with wash buffer. Pelleted cells were resuspended with reaction buffer, TdT enzyme, and bromo-dUTP for 1 hour at 37° C. Cells were subsequently rinsed with 1.0 ml of PBS and resuspended with fluorescein-labeled anti-BrdUrd in the dark for 30 min at room temperature. Propidium iodide and RNase were added, and the cells were incubated for 30 min. One×10^4 cells per experimental condition were analyzed for fluorescence on a Becton-Dickinson FACScan using Cell Quest software.

[12] = tested on: human Mcl-1; assay: Western blot of Mcl-1 in NIH3T3 cells stably expressing human Mcl-1; assay type: cell-based, murine; details: 200 nM, up to 72 hours, FIG. 5A
Protocol: as §1, with “identically. Cell lysates were normalized for total protein content (50 μg) and subjected to SDS-PAGE as described previously. Primary antibodies used in these studies consisted of E2F1 (SantaCruz Biotechnology; SC-251), Mcl-1 (Santa Cruz; SC-819), Rb (PharMingen; 14031A), Flag (Sigma; F-3615) and β-actin (Sigma; A5441). Detection of proteins was accomplished using horseradish-peroxidase-conjugated secondary antibodies and enhanced chemiluminescence (ECL) purchased through Amersham. Northern blots were performed as described previously.” for “identically.”

[13] = tested on: H1299 lung carcinoma cells; assay: Apoptosis by Apo-BrdUrd incorporation in H1299 cells; assay type: cell-based, human
Protocol: as §1, §5

[14] = tested on: Mcl-1 mRNA; assay: Northern blot of endogenous Mcl-1 mRNA in wild-type NIH3T3 cells; assay type: cell-based, murine; details: wild-type 3T3 cells, total RNA, FIG. 5B
Protocol: as §4

[15] = H1299, 200 nM, 12 hours, extended time course FIG. 3A
[16] = H1299, increasing doses, 48 hours, FIG. 1A

Structure (SMILES): CN1CC[C@H](c2c(O)cc(O)c3c(=O)cc(-c4ccccc4Cl)oc23)[C@H](O)C1 [flavopiridol]
- Bok levels [1]: No changes
- Apoptosis in mouse embryo fibroblast lines lacking E2F1 compared with wild-type littermates [2]: less sensitive to flavopiridol-induced cell death
- Mcl-1 protein levels in H1299 cells lacking E2F1 [3]: decreased in a manner identical to that of the control cells
- Rb phosphorylation [4]: no changes in Rb phosphorylation
- Mcl-1 protein levels at 200 nM and higher doses ([5]; H1299, 200 nM and higher, 48 hours, FIG. 1A): undetectable
- Mcl-1 levels after 12 hours [5, 15]: undetectable
- Mcl-1 levels by 36 hours ([5]; H1299, 200 nM, 36 hours, FIG. 3A): Low levels of Mcl-1 were apparent
- Time after which Mcl-1 levels began to fall ([5]; H1299, 200 nM, FIG. 2A): 3 h
- Time after which Mcl-1 levels were maximally reduced ([5]; H1299, 200 nM, FIG. 2A): 12 h
- Mcl-1 protein levels, dose response [5, 16]: significantly reduced starting at the 100-nM dose
- E2F1 levels after 12 hours [6, 15]: E2F1 levels had risen
- E2F1 levels after 72 hours ([6]; H1299, 200 nM, 72 hours, FIG. 3A): E2F1 levels fell
- Time after which E2F1 levels reached a plateau ([6]; H1299, 200 nM, FIG. 2A): 9 h
- Time after which increases in E2F1 protein are apparent ([6]; H1299, 200 nM, FIG. 2A): 3 h
- E2F1 protein levels, dose response [6, 16]: markedly elevated starting at the 100-nM dose
- Bcl-2 levels [7]: No changes
- Apoptosis in NIH3T3 stably expressing Mcl-1 [8]: minimal increases in apoptosis
- Apoptosis in H1299 cells lacking E2F1 compared with empty RNAi vector cells [9]: less sensitive to flavopiridol-induced cell death
- Apoptosis in wild-type NIH3T3 (pcDNA3 alone) [10]: undergoes apoptosis starting after 48 hours but is more pronounced after 72 hours of treatment
- Apoptosis in stably transfected Mcl-1 clones compared with control cells [11]: resistant to apoptosis induced by flavopiridol
- Human Mcl-1 protein levels in stably transfected NIH3T3 cells [12]: no changes are seen in the levels of Mcl-1
- Apoptosis after 48 and 72 hours ([13]; H1299, 200 nM, 48 and 72 hours, FIG. 3B): larger degrees of apoptosis
- Apoptosis after 24 hours ([13]; H1299, 200 nM, 24 hours, FIG. 3B): Minimal levels of apoptosis
- Apoptosis at 36 hours ([13]; H1299, 200 nM, 36 hours, FIG. 3B): apoptosis was evident
- Apoptosis at times <18 hours ([13]; H1299, 200 nM, <18 hours, FIG. 2B): minimal effect on apoptosis
- Apoptosis (Apo-BrdUrd incorporation), dose response ([13]; H1299, 48 hours of treatment, FIG. 1B): minimal elevations in apoptosis, as measured by Apo-BrdUrd incorporation, are seen until a dose of 200 nM was reached
- Time within which endogenous Mcl-1 levels are reduced [14]: ≤ 6 h
